Values of other authors, collected in PubChem BioAssay AID1259409 (Chemical Carcinogenesis Research Information System (CCRIS), 2018).

Tested on: rodent chemically induced tumor inhibition, incidence and multiplicity
Assay: CCRIS tumor inhibitor studies

For CC(O)CCC(=O)c1cccs1 (configuration not stated), the “tumour outcome (control, treated, inhibition, significance)” value (Carcinogen: 4-(METHYLNITROSAMINO)-1-(3-PYRIDYL)-1-BUTANONE, 64091-91-4, Dose [Inhibitor]: 0, 25 UMOL IN 0.1 ML CORN OIL ONCE 2 HR PRIOR TO CARCINOGEN DOSE (STUDY DURATION: 16 WK), Route [Inhibitor]: GAVAGE, Species: MOUSE, Strain/Sex: STRAIN-A/FEMALE, Target Tissue: Type of Lesion: LUNG: ADENOMA, Dose [Carcinogen]: 10 UMOL IN 0.1 ML SALINE ONCE, Promoter: NONE USED) is listed as 100%, 100%, 0%, not significant.
In the case of Oc1cc(O)cc(O)c1, the “tumour outcome (control, treated, inhibition, significance)” value (Carcinogen: BENZO[A]PYRENE, 50-32-8, Dose [Inhibitor]: 0.03 MMOL/G OF DIET DAILY STARTING 7 D BEFORE AND CONTINUING THROUGH 3 D AFTER CARCINOGEN TREATMENT FOLLOWED BY OBSERVAT, Route [Inhibitor]: ORAL, Species: MOUSE, Strain/Sex: ICR/FEMALE, Target Tissue: Type of Lesion: FORESTOMACH: NEOPLASM, Dose [Carcinogen]: 1 MG IN 0.2 ML CORN OIL 2/WK FOR 4 WK, Promoter: NONE USED) is listed as 100%, 83%, 17%, not significant.
In the case of CC1=C[C@H]2[C@@]3(O)[C@H](C)C[C@]4(OC(=O)Cc5ccccc5)C([C@@H]3C=C(CO)C[C@]2(O)C1=O)C4(C)C (some centres not stated), the “tumour outcome (control, treated, inhibition, significance)” value (Carcinogen: 7,12-DIMETHYLBENZ[A]ANTHRACENE, 57-97-6, Dose [Inhibitor]: 0, 2.14 NMOL 15 D POST INITIATION DOSE FOLLOWED BY 2.14 NMOL 2/WK DURING WK 3-22 APPLIED 15 MIN PRIOR TO EACH PROMOTION, Route [Inhibitor]: DERMAL, Species: MOUSE, Strain/Sex: CD-1/FEMALE, Target Tissue: Type of Lesion: SKIN: PAPILLOMA, Dose [Carcinogen]: 20 NMOL IN 200 µL ACETONE ONCE) is listed as 100%, 82%, 18%, not calculated, the “tumour outcome (control, treated, inhibition, significance)” value (Carcinogen: 7,12-DIMETHYLBENZ[A]ANTHRACENE, 57-97-6, Dose [Inhibitor]: 0, 2.14 NMOL 15 D POST INITIATION DOSE FOLLOWED BY 2.14 PMOL 2/WK DURING WK 3-22 APPLIED 15 MIN PRIOR TO EACH PROMOTION, Route [Inhibitor]: DERMAL, Species: MOUSE, Strain/Sex: CD-1/FEMALE, Target Tissue: Type of Lesion: SKIN: PAPILLOMA, Dose [Carcinogen]: 20 NMOL IN 200 µL ACETONE ONCE) is listed as 100%, 97%, 3%, not calculated and the “tumour outcome (control, treated, inhibition, significance)” value (Carcinogen: 7,12-DIMETHYLBENZ[A]ANTHRACENE, 57-97-6, Dose [Inhibitor]: 0, 2.14 NMOL 15 D POST INITIATION DOSE FOLLOWED BY 21.4 NMOL 2/WK DURING WK 3-22 APPLIED 15 MIN PRIOR TO EACH PROMOTION, Route [Inhibitor]: DERMAL, Species: MOUSE, Strain/Sex: CD-1/FEMALE, Target Tissue: Type of Lesion: SKIN: PAPILLOMA, Dose [Carcinogen]: 20 NMOL IN 200 µL ACETONE ONCE) is listed as 100%, 53%, 47%, not calculated. The “tumour outcome (control, treated, inhibition, significance)” value (Carcinogen: 7,12-DIMETHYLBENZ[A]ANTHRACENE, 57-97-6, Dose [Inhibitor]: 0, 2.14 NMOL 15 D POST INITIATION DOSE FOLLOWED BY 21.4 PMOL 2/WK DURING WK 3-22 APPLIED 15 MIN PRIOR TO EACH PROMOTION, Route [Inhibitor]: DERMAL, Species: MOUSE, Strain/Sex: CD-1/FEMALE, Target Tissue: Type of Lesion: SKIN: PAPILLOMA, Dose [Carcinogen]: 20 NMOL IN 200 µL ACETONE ONCE) was 100%, 100%, 0%, not significant, the “tumour outcome (control, treated, inhibition, significance)” value (Carcinogen: 7,12-DIMETHYLBENZ[A]ANTHRACENE, 57-97-6, Dose [Inhibitor]: 0, 2.14 NMOL 15 D POST INITIATION DOSE FOLLOWED BY 214 PMOL 2/WK DURING WK 3-22 APPLIED 15 MIN PRIOR TO EACH PROMOTION D, Route [Inhibitor]: DERMAL, Species: MOUSE, Strain/Sex: CD-1/FEMALE, Target Tissue: Type of Lesion: SKIN: PAPILLOMA, Dose [Carcinogen]: 20 NMOL IN 200 µL ACETONE ONCE) was 100%, 95%, 5%, not calculated and the “tumour outcome (control, treated, inhibition, significance)” value (Carcinogen: 7,12-DIMETHYLBENZ[A]ANTHRACENE, 57-97-6, Dose [Inhibitor]: 2.14 NMOL BEGINNING 15 D POST INITIATION DOSE AND EVERY THURS. AS WELL AS 21.4 NMOL 15 MIN PRIOR TO EACH PROMOTION DOSE, Route [Inhibitor]: DERMAL, Species: MOUSE, Strain/Sex: CD-1/FEMALE, Target Tissue: Type of Lesion: SKIN: PAPILLOMA, Dose [Carcinogen]: 20 NMOL IN 200 µL ACETONE ONCE) was 100%, 65%, 35%, not calculated. For the same compound, the “tumour outcome (control, treated, inhibition, significance)” value (Carcinogen: 7,12-DIMETHYLBENZ[A]ANTHRACENE, 57-97-6, Dose [Inhibitor]: 2.14 NMOL BEGINNING 15 D POST INITIATION DOSE AND EVERY WED. AS WELL AS 21.4 NMOL 15 MIN PRIOR TO PROMOTION DOSE ON FRI., Route [Inhibitor]: DERMAL, Species: MOUSE, Strain/Sex: CD-1/FEMALE, Target Tissue: Type of Lesion: SKIN: PAPILLOMA, Dose [Carcinogen]: 20 NMOL IN 200 µL ACETONE ONCE) was 98%, 50%, 49%, not calculated.
For Ac-SDAAVDTSSEITTKDLKEKKEVVEEAEN-OH, the “tumour outcome (control, treated, inhibition, significance)” value (Carcinogen: N-BUTYL-N-(4-HYDROXYBUTYL)NITROSAMINE, 3817-11-6, Dose [Inhibitor]: 0, 0.3 UG IN 100 µL SALINE INJECTED INTO RIGHT THIGH 2/WK FOR 20 WK (STUDY DURATION: 20 WK), Route [Inhibitor]: INTRAMUSCULAR, Species: MOUSE, Strain/Sex: C3H/HEJ/FEMALE, Target Tissue: Type of Lesion: BLADDER: CARCINOMA, Dose [Carcinogen]: 0.05% (W/V) SOLUTION IN DRINKING WATER WITH 0.001% (W/V) TWEEN 80 FOR 20 WK, Promoter: NONE USED) is listed as 6/11 (55%), 5/12 (42%), 24%, not significant, the “tumour outcome (control, treated, inhibition, significance)” value (Carcinogen: N-BUTYL-N-(4-HYDROXYBUTYL)NITROSAMINE, 3817-11-6, Dose [Inhibitor]: 0, 0.3 UG IN 100 µL SALINE INJECTED INTO RIGHT THIGH 2/WK FOR 25 WK (STUDY DURATION: 25 WK), Route [Inhibitor]: INTRAMUSCULAR, Species: MOUSE, Strain/Sex: C3H/HEJ/FEMALE, Target Tissue: Type of Lesion: BLADDER: CARCINOMA, Dose [Carcinogen]: 0.05% (W/V) SOLUTION IN DRINKING WATER WITH 0.001% (W/V) TWEEN 80 FOR 25 WK, Promoter: NONE USED) is listed as 9/16 (56%), 9/16 (56%), 0%, not significant and the “tumour outcome (control, treated, inhibition, significance)” value (Carcinogen: N-BUTYL-N-(4-HYDROXYBUTYL)NITROSAMINE, 3817-11-6, Dose [Inhibitor]: 0, 6 UG IN 100 µL SALINE INJECTED INTO RIGHT THIGH 2/WK FOR 30 WK (STUDY DURATION: 30 WK), Route [Inhibitor]: INTRAMUSCULAR, Species: RAT, Strain/Sex: WISTAR/FEMALE, Target Tissue: Type of Lesion: BLADDER: CARCINOMA, Dose [Carcinogen]: 0.025% (W/V) SOLUTION IN DRINKING WATER WITH 0.0005% (W/V) TWEEN 80 FOR 30 WK, Promoter: NONE USED) is listed as 9/11 (82%), 6/11 (55%), 33%, not significant.
In the case of CSCC[C@H](N)C(=O)O, the “tumour outcome (control, treated, inhibition, significance)” value (Carcinogen: 7,12-DIMETHYLBENZ[A]ANTHRACENE, 57-97-6, Dose [Inhibitor]: 0.06 MMOL/G DIET DAILY FOR 17 WK STARTING 1 WK PRIOR TO CARCINOGEN TREATMENT AND CONTINUING THROUGH THE END OF THE STUDY, Route [Inhibitor]: ORAL, Species: RAT, Strain/Sex: SPRAGUE-DAWLEY/FEMALE, Target Tissue: Type of Lesion: MAMMARY GLAND: TUMOR, Dose [Carcinogen]: 12 MG IN 1 ML OLIVE OIL ONCE, Promoter: NONE USED) is listed as 59%, 72%, -22%, not calculated, the “tumour outcome (control, treated, inhibition, significance)” value (Carcinogen: N-METHYL-N'-NITRO-N-NITROSOGUANADINE, 70-25-7, Dose [Inhibitor]: 0, 150 MG/KG BW 1/2 D FOR 26 WK BEGINNING POST CARCINOGEN TREATMENT (STUDY DURATION: 52 WK), Route [Inhibitor]: SUBCUTANEOUS, Species: RAT, Strain/Sex: WISTAR/MALE, Target Tissue: Type of Lesion: STOMACH: ADENOCARCINOMA, Dose [Carcinogen]: 25 UG/ML IN DRINKING WATER FOR 25 WK, Promoter: AMMONIUM ACETATE, 631-61-8, SODIUM HYPOCHLORITE, 7681-52-9, Promoter: AMMONIUM ACETATE, 631-61-8, SODIUM HYPOCHLORITE, 7681-52-9) is listed as 19/19 (100%), 9/18 (50%), 50%, p<0.01 and the “tumour outcome (control, treated, inhibition, significance)” value (Carcinogen: N-NITROSOBIS(2-OXOPROPYL)AMINE [60559-38-4], Dose [Inhibitor]: 2% IN DIET FOR 27 WK BEGINNING IMMEDIATELY POST LAST CARCINOGEN DOSE (STUDY DURATION: 32 WK), Route [Inhibitor]: ORAL, Species: HAMSTER, Strain/Sex: SYRIAN/FEMALE, Target Tissue: Type of Lesion: PANCREAS: ADENOCARCINOMA, Dose [Carcinogen]: 10 MG/KG BW 1X/WK FOR 5 WK (STUDY DURATION: 32 WK), Promoter: NONE) is listed as 20/28 (71.4%), 7/19 (36.8%), 48%, p<0.05.
For C[C@]12CCC(=O)C(O)=C1CC[C@@H]1[C@@H]2CC[C@]2(C)C(=O)CC[C@@H]12, the “tumour outcome (control, treated, inhibition, significance)” value (Carcinogen: METHYLNITROSOUREA, 684-93-5, Dose [Inhibitor]: 0, 6 MG/D 7 D/WK FOR DURATION OF STUDY BEGINNING 1 WK PRIOR TO CARCINOGEN DOSE (STUDY DURATION: 107 D), Route [Inhibitor]: GAVAGE, Species: RAT, Strain/Sex: SPRAGUE-DAWLEY/FEMALE, Target Tissue: Type of Lesion: MAMMARY GLAND: TUMOR, Dose [Carcinogen]: 50 MG/KG BW ONCE, Promoter: NONE USED) is given as 100%, 95%, 5%, not significant and the “tumour outcome (control, treated, inhibition, significance)” value (Carcinogen: METHYLNITROSOUREA, 684-93-5, Dose [Inhibitor]: 0, 15 MG/D 7 D/WK FOR DURATION OF STUDY BEGINNING 1 WK PRIOR TO CARCINOGEN DOSE (STUDY DURATION: 107 D), Route [Inhibitor]: GAVAGE, Species: RAT, Strain/Sex: SPRAGUE-DAWLEY/FEMALE, Target Tissue: Type of Lesion: MAMMARY GLAND: TUMOR, Dose [Carcinogen]: 50 MG/KG BW ONCE, Promoter: NONE USED) is given as 100%, 100%, 0%, not significant.
